In patent publication US20240425491A1, “HETEROARYL COMPOUNDS USEFUL IN THE TREATMENT OF COGNITIVE DISORDERS” (University College Cardiff Consultants Limited, priority 2021, published 2024):

How the values were obtained:
[1] = biological target: T1, human recombinant GABAAR containing α5β3γ2 subunits (benzodiazepine site) (Homo sapiens, UniProt P18507+P31644); assay: In vitro radioligand binding assay (α5-GABAAR Ki); settings: inhibition of [3H]Ro15-1788 binding, membranes of L(tk−) cells expressing human α5β3γ2; read-out: α5-GABAAR Ki
T1 construct: expressed in transfected cells; host or cells: mouse L(tk−) cells, dexamethasone-inducible vector pMSGneo
T1 sequence (P31644 32-462): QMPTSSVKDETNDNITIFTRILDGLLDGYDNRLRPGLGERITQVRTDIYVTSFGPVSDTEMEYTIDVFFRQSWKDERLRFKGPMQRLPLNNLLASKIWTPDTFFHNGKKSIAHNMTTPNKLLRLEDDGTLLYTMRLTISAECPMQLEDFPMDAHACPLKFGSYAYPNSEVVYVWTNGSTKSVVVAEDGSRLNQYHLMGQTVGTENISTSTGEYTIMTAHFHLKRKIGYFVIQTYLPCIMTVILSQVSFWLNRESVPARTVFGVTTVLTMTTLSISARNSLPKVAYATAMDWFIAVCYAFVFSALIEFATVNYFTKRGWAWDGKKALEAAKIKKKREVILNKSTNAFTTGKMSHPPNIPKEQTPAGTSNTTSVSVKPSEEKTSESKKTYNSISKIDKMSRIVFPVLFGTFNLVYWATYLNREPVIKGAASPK
T1 sequence (P28472 26-473 partner): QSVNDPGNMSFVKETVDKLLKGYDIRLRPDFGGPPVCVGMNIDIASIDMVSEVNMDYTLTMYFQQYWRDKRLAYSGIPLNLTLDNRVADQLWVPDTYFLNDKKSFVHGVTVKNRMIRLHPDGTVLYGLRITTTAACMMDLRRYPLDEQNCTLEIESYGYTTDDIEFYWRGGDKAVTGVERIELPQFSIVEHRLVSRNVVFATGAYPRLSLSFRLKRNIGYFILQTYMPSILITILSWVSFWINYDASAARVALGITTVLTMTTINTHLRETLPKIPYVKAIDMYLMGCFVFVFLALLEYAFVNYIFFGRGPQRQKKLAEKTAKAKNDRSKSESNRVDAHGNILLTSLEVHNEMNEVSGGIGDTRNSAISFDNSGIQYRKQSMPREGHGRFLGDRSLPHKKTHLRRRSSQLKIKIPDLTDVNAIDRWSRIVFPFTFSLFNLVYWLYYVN
T1 sequence (P18507 40-475): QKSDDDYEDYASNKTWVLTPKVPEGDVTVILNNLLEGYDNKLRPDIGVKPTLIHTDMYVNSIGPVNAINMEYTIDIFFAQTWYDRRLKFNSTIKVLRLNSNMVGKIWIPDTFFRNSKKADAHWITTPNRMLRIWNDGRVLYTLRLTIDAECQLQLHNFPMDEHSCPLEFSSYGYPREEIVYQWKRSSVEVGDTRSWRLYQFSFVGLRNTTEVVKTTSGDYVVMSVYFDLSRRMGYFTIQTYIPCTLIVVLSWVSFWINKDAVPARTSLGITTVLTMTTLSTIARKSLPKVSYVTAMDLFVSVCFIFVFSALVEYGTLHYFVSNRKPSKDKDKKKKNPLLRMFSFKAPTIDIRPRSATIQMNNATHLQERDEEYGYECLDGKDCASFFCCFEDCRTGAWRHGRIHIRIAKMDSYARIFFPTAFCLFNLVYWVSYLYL
Summary of the method: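 Membranes from mouse L(tk^−) cells stably expressing human α5β3γ2 GABAAR incubated 1 h at 4° C with 4 nM [^3H]Ro15-1788 and test compound; nonspecific binding with 1 μM TP003. Filter-bound radioactivity counted; Ki from IC50 by Cheng-Prusoff using measured Kd.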

[2] = biological target: T2, human α5β3γ2 GABAARs in mouse L(tk−) cells (Homo sapiens, UniProt P18507+P31644); assay: In vitro electrophysiological recording assay (α5-GABAAR relative efficacy), QPatch; format: cell-based; settings: GABA EC10-20
T2 construct: expressed in transfected cells; host or cells: mouse L(tk−) cells, dexamethasone-inducible vector pMSGneo
T2 sequence (P31644 32-462): as the sequence (P31644 32-462) above
T2 sequence (P28472 26-473 partner): as the sequence (P28472 26-473 partner) above
T2 sequence (P18507 40-475): as the sequence (P18507 40-475) above
Summary of the method: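 Whole-cell QPatch recordings at 20-22° C, −65 mV holding, in dexamethasone-induced (1 μM, 24 h) L(tk−) cells. Compound pre-applied ≥1 min, then co-applied with GABA EC10-20; percentage change in leak-corrected peak current, taken at ≥100× Ki, normalised to DMCM efficacy; 0.1% DMSO final.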

Ki [1] | α5-GABAAR Relative Efficacy (to DMCM), Qpatch ([2]; Conc 1 μM) | Structure (SMILES) | also measured
2.3 nM |  | COc1nc(-c2cnc3n2CCOC3)cnc1NC(=O)c1c(-c2ccccc2)noc1C [Example 155, N-[5-(6,8-Dihydro-5H-imidazo[2,1-c][1,4]oxazin-3-yl)-3-methoxy-pyrazin-2-yl]-5-methyl-3-phenyl-isoxazole-4-carboxamide] | α5-GABAAR Relative Efficacy (to DMCM), Qpatch ([2]; Conc 0.3 μM): −0.91
2 nM |  | COc1ncc(-c2cnc(NC(=O)c3c(-c4ccccc4)noc3C)c(OC)n2)cn1 [Example 72, N-[3-Methoxy-5-(2-methoxypyrimidin-5-yl)pyrazin-2-yl]-5-methyl-3-phenyl-isoxazole-4-carboxamide] | α5-GABAAR Relative Efficacy (to DMCM), Qpatch ([2]; Conc 0.3 μM): −1.04
2.9 nM |  | CCOc1ncc(-c2cnc(NC(=O)c3c(-c4ccccc4)noc3C)c(OC)n2)cn1 [Example 142, N-[5-(2-Ethoxypyrimidin-5-yl)-3-methoxy-pyrazin-2-yl]-5-methyl-3-phenyl-isoxazole-4-carboxamide] | α5-GABAAR Relative Efficacy (to DMCM), Qpatch ([2]; Conc 0.3 μM): −0.85
2.8 nM |  | COc1ccc(-c2cnc(NC(=O)c3c(-c4ccccc4)noc3C)c(OC)n2)cn1 [Example 71, N-[3-Methoxy-5-(6-methoxy-3-pyridyl)pyrazin-2-yl]-5-methyl-3-phenyl-isoxazole-4-carboxamide] | α5-GABAAR Relative Efficacy (to DMCM), Qpatch ([2]; Conc 0.3 μM): −0.94
3.3 nM | −0.60 | COc1nc(-c2cnc3ncccn23)ccc1NC(=O)c1c(-c2ccccc2)noc1C [Example 136, N-(6-(Imidazo[1,2-a]pyrimidin-3-yl)-2-methoxypyridin-3-yl)-5-methyl-3-phenylisoxazole-4-carboxamide] | 
8 nM | −0.68 | COc1nc(-c2cn[nH]c2)ccc1NC(=O)c1c(-c2ccccc2)noc1C [Example 26, N-[2-Methoxy-6-(1H-pyrazol-4-yl)-3-pyridyl]-5-methyl-3-phenyl-isoxazole-4-carboxamide] | 
10.1 nM |  | COc1nc(-c2ccc3nnn(C)c3c2)ccc1NC(=O)c1c(-c2ccccc2)noc1C [Example 91, N-(2-Methoxy-6-(1-methyl-1H-benzo[d] [1,2,3]triazol-6-yl)pyridin-3-yl)-5-methyl-3-phenylisoxazole-4-carboxamide] | α5-GABAAR Relative Efficacy (to DMCM), Qpatch ([2]; Conc 3 μM): −0.45
46.7 nM |  | COc1ccc(-c2ccc(NC(=O)c3c(-c4ccccc4)noc3C)c(OC)n2)nn1 [Example 128, N-[2-Methoxy-6-(6-methoxypyridazin-3-yl)-3-pyridyl]-5-methyl-3-phenyl-isoxazole-4-carboxamide] | α5-GABAAR Relative Efficacy (to DMCM), Qpatch ([2]; Conc 10 μM): −0.19
1 nM |  | COc1nc(-c2cnccc2N)ccc1NC(=O)c1c(-c2ccccc2)noc1C [Example 78, N-(4′-Amino-6-methoxy-[2,3′-bipyridin]-5-yl)-5-methyl-3-phenylisoxazole-4-carboxamide] | α5-GABAAR Relative Efficacy (to DMCM), Qpatch ([2]; Conc 0.1 μM): −0.42
0.7 nM | −0.92 | COc1nc(-c2cnc(NCCN(C)C)nc2)ccc1NC(=O)c1c(-c2ccccc2)noc1C [Example 167, N-[6-[2-[2-(Dimethylamino)ethylamino]pyrimidin-5-yl]-2-methoxy-3-pyridyl]-5-methyl-3-phenyl-isoxazole-4-carboxamide] | 
2.4 nM |  | COc1nc(-c2ccnn2C)ccc1NC(=O)c1c(-c2ccccc2)noc1C [Example 23, N-[2-Methoxy-6-(2-methylpyrazol-3-yl)-3-pyridyl]-5-methyl-3-phenyl-isoxazole-4-carboxamide] | α5-GABAAR Relative Efficacy (to DMCM), Qpatch ([2]; Conc 0.3 μM): −0.46
50 nM |  | COc1cc(-c2c(C)noc2C)cnc1NC(=O)c1c(-c2ccccc2)noc1C [Example 14, N-[5-(3,5-Dimethylisoxazol-4-yl)-3-methoxy-2-pyridyl]-5-methyl-3-phenyl-isoxazole-4-carboxamide] | α5-GABAAR Relative Efficacy (to DMCM), Qpatch ([2]; Conc 10 μM): −0.24
3.1 nM | −0.81 | COc1nc(-c2ccc(NC(C)=O)nc2)ccc1NC(=O)c1c(-c2ccccc2)noc1C [Example 108, N-(6′-Acetamido-6-methoxy-[2,3′-bipyridin]-5-yl)-5-methyl-3-phenylisoxazole-4-carboxamide] | 
1.5 nM |  | COc1cc(-c2cccc3nccn23)cnc1NC(=O)c1c(-c2ccccc2)noc1C [Example 29, N-(5-Imidazo[1,2-a]pyridin-5-yl-3-methoxy-2-pyridyl)-5-methyl-3-phenyl-isoxazole-4-carboxamide] | α5-GABAAR Relative Efficacy (to DMCM), Qpatch ([2]; Conc 0.3 μM): −0.53
21.7 nM |  | COc1nc(-c2cncs2)ccc1NC(=O)c1c(-c2ccccc2)noc1C [Example 94, N-(2-Methoxy-6-(thiazol-5-yl)pyridin-3-yl)-5-methyl-3-phenylisoxazole-4-carboxamide] | α5-GABAAR Relative Efficacy (to DMCM), Qpatch ([2]; Conc 3 μM): −0.50

More lines, now with the values behind:

Structure (SMILES) | Ki [1] | α5-GABAAR Relative Efficacy (to DMCM), Qpatch ([2]; Conc 1 μM) | also measured
COc1cc(-n2ccnc2)ccc1NC(=O)c1c(-c2ccccc2)noc1C [Example 2, N-(4-Imidazol-1-yl-2-methoxy-phenyl)-5-methyl-3-phenyl-isoxazole-4-carboxamide] | 2.4 nM | −0.54 | 
CNCCNc1ncc(-c2ccc(NC(=O)c3c(-c4ccccc4)noc3C)c(OC)n2)cn1.Cl [Example 170, N-[2-Methoxy-6-[2-[2-(methylamino)ethylamino]pyrimidin-5-yl]-3-pyridyl]-5-methyl-3-phenyl-isoxazole-4-carboxamide hydrochloride] | 0.5 nM |  | α5-GABAAR Relative Efficacy (to DMCM), Qpatch ([2]; Conc 0.1 μM): −0.84
Cc1onc(-c2ccccc2)c1C(=O)Nc1ccc(-n2ccnc2)nc1N(C)C [Example 176, N-[2-(Dimethylamino)-6-imidazol-1-yl-3-pyridyl]-5-methyl-3-phenyl-isoxazole-4-carboxamide] | 9 nM | −0.36 | 
COc1nc(-n2cnc(C(F)(F)F)c2)ccc1NC(=O)c1c(-c2ccccc2)noc1C [Example 140, N-[2-Methoxy-6-[4-(trifluoromethyl)imidazol-1-yl]-3-pyridyl]-5-methyl-3-phenyl-isoxazole-4-carboxamide] | 5.7 nM | −0.79 | 
COc1nc(-c2cncc(-n3cccn3)c2)ccc1NC(=O)c1c(-c2ccccc2)noc1C [Example 90, N-(6-Methoxy-5′-(1H-pyrazol-1-yl)-[2,3′-bipyridin]-5-yl)-5-methyl-3-phenylisoxazole-4-carboxamide] | 3.4 nM | −0.58 | 
COc1nc(-n2cnc3c2CCNC3)ccc1NC(=O)c1c(-c2ccccc2)noc1C.Cl [Example 178, N-[2-methoxy-6-(4,5,6,7-tetrahydroimidazo[4,5-c]pyridin-1-yl)-3-pyridyl]-5-methyl-3-phenyl-isoxazole-4-carboxamide hydrochloride] | 2 nM |  | α5-GABAAR Relative Efficacy (to DMCM), Qpatch ([2]; Conc 0.3 μM): −0.62
COc1nc(-c2ccc3[nH]c(=O)n(C)c3c2)ccc1NC(=O)c1c(-c2ccccc2)noc1C [Example 77, N-(2-Methoxy-6-(3-methyl-2-oxo-2,3-dihydro-1H-benzo[d]imidazol-5-yl)pyridin-3-yl)-5-methyl-3-phenylisoxazole-4-carboxamide] | 16.1 nM |  | α5-GABAAR Relative Efficacy (to DMCM), Qpatch ([2]; Conc 3 μM): −0.22
COc1cc(-n2ccnc2)ccc1NC(=O)c1c(C)nnn1-c1ccccc1 [Example 5, N-(4-(1H-Imidazol-1-yl)-2-methoxyphenyl)-4-methyl-1-phenyl-1H-1,2,3-triazole-5-carboxamide] | 50.7 nM | −0.82 | 
COc1nc(-c2ccc3[nH]nc(N)c3c2)ccc1NC(=O)c1c(-c2ccccc2)noc1C [Example 33, N-[6-(3-Amino-1H-indazol-5-yl)-2-methoxy-3-pyridyl]-5-methyl-3-phenyl-isoxazole-4-carboxamide] | 15.8 nM |  | α5-GABAAR Relative Efficacy (to DMCM), Qpatch ([2]; Conc 3 μM): −0.50
CNCc1ncc(-c2ccc(NC(=O)c3c(-c4ccccc4)noc3C)c(OC)n2)cn1.Cl [Example 168, N-[2-Methoxy-6-[2-(methylaminomethyl)pyrimidin-5-yl]-3-pyridyl]-5-methyl-3-phenyl-isoxazole-4-carboxamide hydrochloride] | 2.7 nM |  | α5-GABAAR Relative Efficacy (to DMCM), Qpatch ([2]; Conc 0.3 μM): −0.72
COc1cc(-c2cncnc2)ccc1NC(=O)c1c(-c2ccccc2)noc1C [Example 13, N-(2-Methoxy-4-pyrimidin-5-yl-phenyl)-5-methyl-3-phenyl-isoxazole-4-carboxamide] | 3.6 nM | −0.85 | 
COc1nc(-c2ccc3c(c2)COC(=O)N3)ccc1NC(=O)c1c(-c2ccccc2)noc1C [Example 119, N-(2-Methoxy-6-(2-oxo-1,4-dihydro-2H-benzo[d] [1,3]oxazin-6-yl)pyridin-3-yl)-5-methyl-3-phenylisoxazole-4-carboxamide] | 13.8 nM |  | α5-GABAAR Relative Efficacy (to DMCM), Qpatch ([2]; Conc 3 μM): −0.63
COc1nc(-c2ccc3c(c2)nc(C)n3C)ccc1NC(=O)c1c(-c2ccccc2)noc1C [Example 111, N-(6-(1,2-Dimethyl-1H-benzo[d]imidazol-5-yl)-2-methoxypyridin-3-yl)-5-methyl-3-phenylisoxazole-4-carboxamide] | 13.1 nM |  | α5-GABAAR Relative Efficacy (to DMCM), Qpatch ([2]; Conc 3 μM): −0.46
CCOc1ncc(-c2ccc(NC(=O)c3c(C)nnn3-c3ccccc3)c(OC)n2)cn1 [Example 162, N-(6-(2-Ethoxypyrimidin-5-yl)-2-methoxypyridin-3-yl)-4-methyl-1-phenyl-1H-1,2,3-triazole-5-carboxamide] | 33.6 nM |  | α5-GABAAR Relative Efficacy (to DMCM), Qpatch ([2]; Conc 3 μM): −0.90
